Reference: paper PMC4150853 (Biochemical and biophysical research communications, 2014)

Key:
[1] = target: T1, α2A adrenergic receptor (α2AAR) (Mus musculus, UniProt Q01338); experiment: competition radioligand binding with 3H-RX821002
T1 sequence (Q01338 1-465): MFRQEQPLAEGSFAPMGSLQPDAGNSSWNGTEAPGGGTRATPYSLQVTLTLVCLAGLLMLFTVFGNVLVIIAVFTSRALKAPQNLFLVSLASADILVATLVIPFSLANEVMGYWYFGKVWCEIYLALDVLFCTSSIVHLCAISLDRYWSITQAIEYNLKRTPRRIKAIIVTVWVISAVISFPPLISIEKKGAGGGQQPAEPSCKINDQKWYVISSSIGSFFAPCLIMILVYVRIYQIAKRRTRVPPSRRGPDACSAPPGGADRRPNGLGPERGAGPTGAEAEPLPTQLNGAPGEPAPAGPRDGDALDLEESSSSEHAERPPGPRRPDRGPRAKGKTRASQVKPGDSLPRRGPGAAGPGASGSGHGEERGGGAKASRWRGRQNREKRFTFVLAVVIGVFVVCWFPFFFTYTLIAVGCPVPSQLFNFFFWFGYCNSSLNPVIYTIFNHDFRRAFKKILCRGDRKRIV

[2] = target: T1, α2A adrenergic receptor (α2AAR); experiment: […]GTPγS binding, […] NE, nearly two-fold induction; format: cell-based
[3] = target: T1, α2A adrenergic receptor (α2AAR); experiment: radioligand of the competition binding assay

Structure (SMILES)	Ki [1] [µM]	further results
CN(C)CCC=C1c2ccccc2CCc2ccccc21 [AMI, amitriptyline]	0.33	
CN(C)CCC[C@@]1(c2ccc(F)cc2)OCc2cc(C#N)ccc21 [ESC, escitalopram]	79.4	
CN(C)CCCN1c2ccccc2CCc2ccccc21 [IMI, imipramine]	5.07	
NC[C@H](O)c1ccc(O)c(O)c1 [NE, norepinephrine]		[35S]GTPγS binding, 10 μM NE, nearly two-fold induction [2]: G protein coupling response by α2AARs is seen only in response the endogenous agonist NE, which drives a nearly two-fold induction
COC1(C2=NCCN2)COc2ccccc2O1 (centres unmarked) [RX821002]		radioligand of the competition binding assay [3]: the radioligand was a ^3H-labeled form of the α2AR antagonist RX821002
